The assay has as its system IFN-a/Jak1Tyk2. Briefly: Co-stimulation assay in lysed whole blood: IFNa (JAK1/TYK2) stimulated STAT1 phosphorylation. The class given is cell-based. Particulars: lysed human whole blood, IFNa 100 ng/mL + GM-CSF 10 ng/mL, pSTAT1 by flow cytometry. As for the experimental part:
Dilute RBC lysis buffer to 1× in distilled water. Add 2 mL blood to 38 mL of 1×RBC-lysis buffer. Incubate for 15 mins at RT, in dark. Spin at 300 g, 5 mins, to collect the pellet. Re-lyse if necessary. Re-suspend pellet in 5 mL of cRPMI.
Aliquot 80 μL of lysed human blood in to wells of 96 deep-well plate. Add 10 μl of (10× conc.) of different concentrations of compounds to all wells except controls (unstained and unstimulated) and mix it with the help of 100 uL multichannel. Add 10 uL of RPMI media in controls. For dilution of compounds and dilution range please refer Appendix. Incubate on water bath or CO2 incubator for 1 hour at 37° C. Add 10 μl of (10× conc.) of cytokine mix (GM-CSF and IFNa) (final conc. 10 ng/mL of GM-CSF and 100 ng/mL of IFNa) to each well except unstimulated and unstained controls and incubate further for 20 minutes on water bath at 37° C.
Add 900 μL of prewarmed 1× Fix/Lyse solution (Appendix) and mix it properly using 1000 μl multichannel, incubate further on water bath at 37° C. for 10 minutes (which includes time of addition). Centrifuge at 800×g for 5 minutes at 40° C.; remove 900 uL of supernatant and add 900 μL of 1×PBS. Centrifuge at 800×g for 5 minutes at 40° C., remove 900 μL of supernatant. Wash one more time with 900 μL of PBS (optional) and resuspend pellets in 100 uL of PBS.
Disrupt the pellet by gentle tapping and resuspend in 1000 μL of BD Phosflow Perm Buffer III and incubate plate on ice for 30 minutes. Centrifuge plate at 800×g for 5 minutes at 40° C. Wash two more times with 1000 μL of BD Pharmingen Stain Buffer.
Disrupt the pellet by gentle tapping. Resuspend pellets in 100 uL of Stain Buffer and add 5 μL of pSTAT5_AF488 Ab and 5 uL of pSTAT1_PE in all wells except unstained control and mix properly using 200 μl multichannel, incubate overnight at […]. Add 900 μL of wash buffer and centrifuge at 1800 rpm for 3 minutes at […]. Wash one more time with 1000 μL of BD Pharmingen Stain Buffer. Finally resuspend the pellet in 300 uL of BD Pharmingen Stain Buffer. Transfer the cells to 96-well v-bottom plate and acquire the cells in Beckman Coulter CytExpert. Acquiring cells in Flow Cytometer: Keep the threshold value to 250 and cell concentration should not exceed 100-500 cells/μL. Acquire at least 5,000-10,000 cells.
Cytokine dilution: 1) GM-CSF Stock at 100 ug/mL. Prepare an intermediate dilution of 1 ug/mL by adding 2 uL of stock into 198 uL of cRPMI. Further dilute to 100 ng/mL by adding 100 uL of the intermediate stock to 900 uL of cRPMI. 2) IFNa Stock at 200 ug/mL. Dilute IFNa stock 1:200 by adding 5 uL of stock into the 1000 uL of 100 ng/mL GM-CSF working stock as above to give a combined working stock of 1000 ng/mL of IFNa and 100 ng/mL GM-CSF (10×). Keep it on ice until used.
Lyse/Fix buffer preparation: Dilute 5× Lyse/Fix buffer to 1× using MQ water and keep at 37° C. until used.
BD Phosflow perm buffer III: Keep on ice/fridge.
In general terms: Flow cytometry measures light scatter and fluorescence of single cells or particles in a stream.

Some results are limits rather than exact numbers.

The IC50 is the concentration that gives 50% inhibition. As for `CNc1cc(Nc2csnc2C(=O)OC)nc2c(C(=O)NC3CC3)cnn12` [Compound 39, methyl 4-((3-(cyclopropylcarbamoyl)-7-(methylamino)pyrazolo[1,5-a]pyrimidin-5-yl)amino)isothiazole-3-carboxylate], the IC50 (20 min) was greater than 300 nM.
Same read-out and setting: then `[2H]C([2H])([2H])Nc1cc(Nc2cc(F)cc3c2OCCO3)nc2c(C(N)=O)cnn12` [Compound 76, 5-((7-fluoro-2,3-dihydrobenzo[b][1,4]dioxin-5-yl)amino)-7-((methyl-d3)amino)pyrazolo[1,5-a]pyrimidine-3-carboxamide], with less than 100 nM; and `CNc1cc(Nc2ccc3c(c2)CN(C)CC3)nc2c(C(=O)NC3CC3)cnn12` [Compound 61, N-cyclopropyl-5-((2-methyl-1,2,3,4-tetrahydroisoquinolin-7-yl)amino)-7-(methylamino)pyrazolo[1,5-a]pyrimidine-3-carboxamide], with 1000 to 10000 nM; and `CNc1cc(Nc2cc(F)cc(F)c2OC)nc2c(C(=O)NCC(C)(O)CO)cnn12` (stereo not drawn) [Compound 26, 5-((3,5-difluoro-2-methoxyphenyl)amino)-N-(2,3-dihydroxy-2-methylpropyl)-7-(methylamino)pyrazolo[1,5-a]pyrimidine-3-carboxamide], with less than 100 nM.
Still for that read-out and setting: the same measure for `CNc1cc(Nc2cccn(C)c2=O)nc2c(C(=O)NC3CC(C#N)C3)cnn12` (stereo not drawn) [Compound 87, N-(3-cyanocyclobutyl)-5-((1-methyl-2-oxo-1,2-dihydropyridin-3-yl)amino)-7-(methylamino)pyrazolo[1,5-a]pyrimidine-3-carboxamide]: 100 to 1000 nM; for `CCOC(=O)c1nscc1Nc1cc(NC)n2ncc(C(=O)NCCOC)c2n1` [Compound 45, ethyl 4-((3-((2-methoxyethyl)carbamoyl)-7-(methylamino)pyrazolo[1,5-a]pyrimidin-5-yl)amino)isothiazole-3-carboxylate]: greater than 300 nM.
Same read-out and setting: the same measure for `CNc1cc(Nc2cccc3c2CCCO3)nc2c(C(=O)NC3CC3)cnn12` [Compound 82, 5-(chroman-5-ylamino)-N-cyclopropyl-7-(methylamino)pyrazolo[1,5-a]pyrimidine-3-carboxamide]: 100 to 1000 nM.
In the case of `CNc1cc(Nc2cc(C)cc(C)c2)nc2c(C(N)=O)cnn12` [Compound 10, 5-((3,5-dimethylphenyl)amino)-7-(methylamino)pyrazole[1,5-a]pyrimidine-3-carboxamide], where the note is “20 minutes”, the half-inhibitory concentration (IC50) is less than 100 nM.
As for `CNc1cc(Nc2cccc3c2OCCO3)nc2c(C(=O)NC3CCC3)cnn12` [Compound 96, N-cyclobutyl-5-((2,3-dihydrobenzo[b][1,4]dioxin-5-yl)amino)-7-(methylamino)pyrazolo[1,5-a]pyrimidine-3-carboxamide], the IC50 (20 min) was less than 100 nM.
Still for that read-out and setting: then `CNc1cc(Nc2cccc3c2OCCO3)nc2c(C(=O)NCC(F)(F)F)cnn12` [Compound 52, 5-((2,3-dihydrobenzo[b][1,4]dioxin-5-yl)amino)-7-(methylamino)-N-(2,2,2-trifluoroethyl)pyrazolo[1,5-a]pyrimidine-3-carboxamide], with 100 to 1000 nM; and `CNc1cc(Nc2c(F)c(F)cc(F)c2F)nc2c(C(=O)NCC(C)(C)CO)cnn12` [Compound 24, N-(3-hydroxy-2,2-dimethylpropyl)-7-(methylamino)-5-((2,3,5,6-tetrafluorophenyl)amino)pyrazolo[1,5-a]pyrimidine-3-carboxamide], with less than 100 nM.
Take `CNc1cc(Nc2cccc3c2OCCC3)nc2c(C(=O)NCC(C)(C)CO)cnn12` [Compound 90, 5-(chroman-8-ylamino)-N-(3-hydroxy-2,2-dimethylpropyl)-7-(methylamino)pyrazolo[1,5-a]pyrimidine-3-carboxamide]: the 50% inhibitory concentration (IC50) (20 min) is less than 100 nM.
Turning to `CNc1cc(Nc2ccc3c(c2)OCCO3)nc2c(C(=O)NC3CC3)cnn12` [Compound 27, N-cyclopropyl-5-((2,3-dihydrobenzo [b][1,4]dioxin-6-yl)amino)-7-(methylamino)pyrazolo[1,5-a]pyrimidine-3-carboxamide], the IC50 (20 min) is less than 100 nM.
Turning to `CNc1cc(Nc2cc(F)cc(F)c2OC)nc2c(C(=O)NCC(C)(C)CO)cnn12` [Compound 23, 5-((3,5-difluoro-2-methoxyphenyl)amino)-N-(3-hydroxy-2,2-dimethylpropyl)-7-(methylamino)pyrazolo[1,5-a]pyrimidine-3-carboxamide], where the note is “20 min”, the IC50 is less than 100 nM.
Still for that read-out and setting: the same measure for `CNc1cc(Nc2cccc3c2OCCO3)nc2c(C(=O)NCC(C)(C)CO)cnn12` [Compound 25, 5-((2,3-dihydrobenzo[b][1,4]dioxin-5-yl)amino)-N-(3-hydroxy-2,2-dimethylpropyl)-7-(methylamino)pyrazolo[1,5-a]pyrimidine-3-carboxamide]: less than 100 nM.
Same read-out and setting: the same measure for `CNc1cc(Nc2cc(F)cc3c2OCCO3)nc2c(C(=O)NCC(C)(C)CO)cnn12` [Compound 109, 5-((7-fluoro-2,3-dihydrobenzo[b][1,4]dioxin-5-yl)amino)-N-(3-hydroxy-2,2-dimethylpropyl)-7-(methylamino)pyrazolo[1,5-a]pyrimidine-3-carboxamide]: less than 100 nM.
On the same count and under the same terms, the same measure for `CNc1cc(Nc2cccnc2C)nc2c(C(=O)NC3CC3)cnn12` [Compound 31, N-cyclopropyl-7-(methylamino)-5-((2-methylpyridin-3-yl)amino)pyrazolo[1,5-a]pyrimidine-3-carboxamide]: greater than 300 nM.
On to `CNc1cc(Nc2cccc3c2OCCO3)nc2c(C(=O)NC3CC(C)(O)C3)cnn12` (stereo not drawn) [Compound 75, 5-((2,3-dihydrobenzo[b][1,4]dioxin-5-yl)amino)-N-(3-hydroxy-3-methylcyclobutyl)-7-(methylamino)pyrazolo[1,5-a]pyrimidine-3-carboxamide], for which the IC50 (20 min) is less than 100 nM.
Consider `CCNc1cc(Nc2cc(C)cc(C)c2)nc2c(C(N)=O)cnn12` [Compound 72, 5-((3,5-dimethylphenyl)amino)-7-(ethylamino)pyrazolo[1,5-a]pyrimidine-3-carboxamide], for which the IC50 (20 min) was 100 to 1000 nM.
As to `CNc1cc(Nc2ccn(CC(F)(F)F)n2)nc2c(C(=O)NC3CC3)cnn12` [Compound 64, N-cyclopropyl-7-(methylamino)-5-((1-(2,2,2-trifluoroethyl)-1H-pyrazol-3-yl)amino)pyrazolo[1,5-a]pyrimidine-3-carboxamide], the IC50 (20 min) is greater than 300 nM.
Same read-out and setting: then `CNc1cc(Nc2cccn(C)c2=O)nc2c(C(=O)NC3CC(O)C3)cnn12` (stereo not drawn) [Compound 86, N-(3-hydroxycyclobutyl)-5-((1-methyl-2-oxo-1,2-dihydropyridin-3-yl)amino)-7-(methylamino)pyrazolo[1,5-a]pyrimidine-3-carboxamide], with greater than 3000 nM; and `CNc1cc(Nc2cnn(C3CCNC3=O)c2)nc2c(C(=O)NC3CC3)cnn12` (stereo not drawn) [Compound 116, N-cyclopropyl-7-(methylamino)-5-((1-(2-oxopyrrolidin-3-yl)-1H-pyrazol-4-yl)amino)pyrazolo[1,5-a]pyrimidine-3-carboxamide], with 1000 to 10000 nM; and `[2H]C([2H])([2H])Nc1cc(Nc2cc(F)cc3c2OCCO3)nc2c(C(=O)N[C@@H]3C[C@@H]3F)cnn12` [Compound 80, 5-((7-fluoro-2,3-dihydrobenzo[b][1,4]dioxin-5-yl)amino)-N-((1R,2S)-2-fluorocyclopropyl)-7-((methyl-d3)amino)pyrazolo[1,5-a]pyrimidine-3-carboxamide], with less than 100 nM.
Same read-out and setting: the same measure for `CNc1cc(Nc2cccn(-c3ccc(OC)nn3)c2=O)nc2c(C(=O)NC3CC(O)C3)cnn12` (stereo not drawn) [Compound 104, N-(3-hydroxycyclobutyl)-5-((1-(6-methoxypyridazin-3-yl)-2-oxo-1,2-dihydropyridin-3-yl)amino)-7-(methylamino)pyrazolo[1,5-a]pyrimidine-3-carboxamide]: 100 to 1000 nM.

Source of the values: patent US20220135567A1, “TYK2 PSEUDOKINASE LIGANDS” (Ventyx Biosciences, Inc., priority 2019, published 2022).
